# Laboratory results taken from the supplement of paper PMC10721915.
# ± gives the standard deviation of the averaged measurements.
# Compound: COc1ccc([C@@H](O)c2cc(-c3ncnc4cc(N5CCOCC5)ccc34)c(F)cc2Cl)nn1 [peposertib]
# Experiment: relative cell growth vs untreated control (GI, NCI-DTP normalisation with time-zero) (fraction of control growth); higher = more growth / less inhibition
# Details: treatment time: 120 h
# Experimental: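 Cancer cell lines were treated with peposertib (DNA-PK inhibitor) combined with gamma ionizing radiation (0, 2, 3 or 6 Gy) for 120 h, starting 48 h after seeding. Read-out was sulforhodamine B total-protein staining, normalised to untreated control and time-zero wells (NCI-DTP GI convention).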
# [1] = peposertib concentration 0.00488 µM, gamma irradiation dose (Gy): 0
# [2] = peposertib concentration 0.0195 µM, gamma irradiation dose (Gy): 0
# [3] = peposertib concentration 0.0781 µM, gamma irradiation dose (Gy): 0
# [4] = peposertib concentration 0.313 µM, gamma irradiation dose (Gy): 0
# [5] = peposertib concentration 1.25 µM, gamma irradiation dose (Gy): 0
# [6] = peposertib concentration 5 µM, gamma irradiation dose (Gy): 0
# [7] = peposertib concentration 0.00488 µM, gamma irradiation dose (Gy): 3
# [8] = peposertib concentration 0.0195 µM, gamma irradiation dose (Gy): 3
# [9] = peposertib concentration 0.0781 µM, gamma irradiation dose (Gy): 3
# [10] = peposertib concentration 0.313 µM, gamma irradiation dose (Gy): 3
# [11] = peposertib concentration 1.25 µM, gamma irradiation dose (Gy): 3
# [12] = peposertib concentration 5 µM, gamma irradiation dose (Gy): 3
Test System,relative cell growth [1],relative cell growth [2],relative cell growth [3],relative cell growth [4],relative cell growth [5],relative cell growth [6],relative cell growth [7],relative cell growth [8],relative cell growth [9],relative cell growth [10],relative cell growth [11],relative cell growth [12]
A204,1.06,1.01,0.892,0.616,0.298,0.0711,,,,,,
A549,1.031 ± 0.01,1.02 ± 0.014,0.966 ± 0.019,0.782 ± 0.071,0.442 ± 0.079,0.113 ± 0.013,0.766,0.613,0.256,0.0863,0.0255,0.0147
A2780,1.03,1.04,1.02,0.999,0.858,0.156,,,,,,
ASPC1,1.1,0.966,1,0.891,0.67,0.22,,,,,,
BXPC3,0.935,0.946,0.903,0.789,0.437,0.137,,,,,,
CACO2,0.994 ± 0.066,0.959 ± 0.018,0.92 ± 0.033,0.85 ± 0.0095,0.644 ± 0.03,0.238 ± 0.01,0.722,0.713,0.595,0.322,0.195,0.098
COLO205,0.984 ± 0.071,0.996 ± 0.039,1.01 ± 0.044,0.969 ± 0.029,0.7949 ± 0.007,0.351 ± 0.04,0.413,0.367,0.203,0.0736,0.0589,0.0686
DLD1,1.01 ± 0.015,0.997 ± 0.014,1 ± 0.042,0.959 ± 0.033,0.842 ± 0.09,0.445 ± 0.091,0.55,0.518,0.389,0.137,0.0235,0.00897
DU145,0.999,0.996,0.96,0.874,0.618,0.287,,,,,,
EFO21,1.05,1.04,0.909,0.667,0.352,0.141,,,,,,
EJ28,1.05,1.02,1.02,0.945,0.824,0.554,,,,,,
HCT15,0.998 ± 0.048,0.896 ± 0.056,1.002 ± 0.0063,0.964 ± 0.028,0.792 ± 0.062,0.301 ± 0.074,0.555,0.482,0.298,0.147,0.0634,0.0278
HEPG2,0.956,0.977,0.977,0.91,0.603,0.211,,,,,,
HL60,0.998,0.975,0.929,0.808,0.526,0.238,,,,,,
HS578T,1.01,1.01,1.02,0.947,0.581,0.182,,,,,,
HS729,1.05,1.06,1.02,0.867,0.716,0.422,,,,,,
HT29,0.978 ± 0.029,0.9825 ± 0.0091,0.974 ± 0.023,0.906 ± 0.03,0.658 ± 0.021,0.252 ± 0.0096,0.885,0.857,0.642,0.152,0.0553,0.0433
HT1080,1.08,1.09,1.08,1.11,1.11,1,,,,,,
IGROV1,1.02,1.02,0.965,0.789,0.22,-0.0182,,,,,,
J82,1.02,1.03,0.991,0.876,0.64,0.377,,,,,,
JIMT1,0.999,1.01,0.999,0.906,0.561,0.232,,,,,,
